Source: patent US10039833B2, “Drug delivery system to increase bioavailability” (OHIO STATE INNOVATION FOUNDATION, priority 2013, dated 2018)
≈ marks a conversion by molar mass, not a printed value.

Assay: physchem

solubility (USP biphthalate buffer, pH 3.5, aqueous buffer): 0.18 µg/mL (≈ 0.391 µM)
solubility (USP biphthalate buffer, pH 5, aqueous buffer): 0.07 µg/mL (≈ 0.152 µM)
solubility (USP chloride buffer, pH 1.2, simulated gastric fluid): 65.3 µg/mL (≈ 142 µM)
solubility (USP phosphate buffer, pH 7.4, aqueous buffer): 0.06 µg/mL (≈ 0.13 µM)
SMILES: NCC(=O)Nc1ccc(-n2nc(C(F)(F)F)cc2-c2ccc3c(ccc4ccccc43)c2)cc1 [AR-12]
